The record followed here is PMC4111124, “Functional characterization of Candida albicans Hos2 histone deacetylase” (F1000Research, 2014).

In experiment [1] the target is T1, Hos2 histone deacetylase (Candida albicans, UniProt A0A1D8PJ17).
T1 construct: full length, N-terminal hexa-histidine tag, expressed in Sf9 cells
Kind of experiment: fluorogenic deacetylase assay with Boc-Lys(Ac)-AMC, % inhibition at […]. It counts as biochemical. The note with it: read-out: % inhibition ± SE / 10 μM.

The target of experiment [2] is T1, Hos2 histone deacetylase. The experiment is described as follows: biochemical.

T1 sequence (A0A1D8PJ17 entry or part of it): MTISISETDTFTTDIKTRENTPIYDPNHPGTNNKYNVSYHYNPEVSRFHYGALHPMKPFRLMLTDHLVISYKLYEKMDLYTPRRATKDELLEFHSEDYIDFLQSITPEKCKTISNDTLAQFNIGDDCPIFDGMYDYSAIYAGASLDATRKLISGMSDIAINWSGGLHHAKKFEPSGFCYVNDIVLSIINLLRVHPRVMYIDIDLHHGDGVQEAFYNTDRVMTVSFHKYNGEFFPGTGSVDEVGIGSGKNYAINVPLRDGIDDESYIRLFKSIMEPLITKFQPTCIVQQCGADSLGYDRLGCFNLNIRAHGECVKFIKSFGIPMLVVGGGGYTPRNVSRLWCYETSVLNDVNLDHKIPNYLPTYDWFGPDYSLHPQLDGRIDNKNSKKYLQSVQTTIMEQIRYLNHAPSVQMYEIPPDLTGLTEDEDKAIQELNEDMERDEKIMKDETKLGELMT

Turning to `Nc1ccccc1NC(=O)c1ccc(CNC(=O)OCc2cccnc2)cc1` [MS-275], the inhibition at 10 µM at Hos2 histone deacetylase [1] was determined as 56.3%.

A word on the IC50: it is the concentration needed to halve the response being measured. With `CC(/C=C/C(=O)NO)=C\[C@@H](C)C(=O)c1ccc(N(C)C)cc1` [TSA], the IC50 on Hos2 histone deacetylase [2] came out at 2.8 nM.
